The test system of this assay is K562/MMB. Briefly: MTT assay, 7-day exposure to riminophenazines alone or with fixed doxorubicin or vinblastine (Example 4). It counts as cell-based. The note with it: Homo sapiens, K562, 168 h. For orientation: Tetrazolium dyes change colour on reduction, which living cells bring about.
Setting [1] is: in the presence of doxorubicin (12 ng/ml), read-out: IC 50 of riminophenazine, Doxorubicin.
[2] abbreviates: in the presence of vinblastine (3 ng/ml), read-out: IC 50 of riminophenazine, Vinblastine.
[3] abbreviates: riminophenazine alone, mean of 2 experiments, read-out: IC 50 of riminophenazine, None.

≈ marks a conversion by molar mass, not a printed value. Where two headings read alike, the source gives them in different places. Bounds are passed on as bounds.

Excerpt: A third cell line (562/MMB) used was a MDR leukemia cell line selected in vitro by progressive exposure to increasing concentrations of vinblastine in order to increase P-glycoprotein expression. […] This cell line expresses high levels of P-glycoprotein as determined by flowcytometry using the monoclonal antibody (MRK 16) against this molecule.
The effects were examined of a 7-day exposure of selected compounds on the sensitivity of the cell line (K562/MMB) to the standard chemotherapeutic agents doxorubicin and vinblastine, using the MTT assay.
The cells were seeded at 1 x 10^4 cells per well in 96 well microlitre plates in a volume of 200 µl of RPMI 1640 medium containing 10 % fetal calf serum and incubated with doxorubicin (12.5 ng/ml) or vinblastine (3 ng/ml). The amounts of MDR modulators used were 0.03, 0.06, 0.125, 0.5, 1.0 and 2.0 µg/ml.
After incubation at 37 °C for 7 days, 20 µl MTT (i.e. 3-[4,5-dimethylthiazol-2-yl]2,5-diphenyl-tetrazolium bromide) at 5 mg/ml was added to each well and the plates incubated for a further 4 hours. The cells were washed with phosphate buffered saline and the intracellular formazan crystals solubilized with dimethylsulphoxide, and the absorbency measured spectrophotometrically at a test wavelength of 540 nm and a reference wavelength of 620 nm.

As for `CC1(C)CC(N=c2cc3n(-c4ccc(Cl)cc4Cl)c4ccccc4nc-3cc2Nc2ccc(Cl)cc2Cl)CC(C)(C)N1` [Compound B4128], the IC50 reads like this: under setting [1], 0.215 µg/mL; under setting [2], 0.059 µg/mL; under setting [3], 0.383 µg/mL (≈ 0.599 µM).
For `COc1ccc(Nc2cc3nc4ccccc4n(-c4ccc(OC)cc4)c-3cc2=NC2CC(C)(C)NC(C)(C)C2)cc1` [Compound B4174, N,5-bis(4-methoxyphenyl)-3,5-dihydro-3-[(2',2',6',6'-tetramethyl-4-piperidyl)-imino]-2-phenazinamine] the same measures were 0.21 µg/mL, 0.178 µg/mL and 0.316 µg/mL (≈ 0.563 µM).
The matching figures for `Cc1ccc(Nc2cc3nc4ccccc4n(-c4ccc(C)cc4)c-3cc2=NC2CCNCC2)cc1` [Compound B4070, N,5-bis(4-methylphenyl)-3,5-dihydro-3-[(4-piperidyl)imino]-2-phenazinamine]: 0.193 µg/mL, 0.054 µg/mL and 0.159 µg/mL (≈ 0.336 µM).
In the case of `CC1(C)CC(N=c2cc3n(-c4cc(Cl)cc(Cl)c4)c4ccccc4nc-3cc2Nc2cc(Cl)cc(Cl)c2)CC(C)(C)N1` [Compound B4121], the IC50 by setting is: under setting [1], 0.722 µg/mL; under setting [3], 2.25 µg/mL (≈ 3.52 µM).
`CC1(C)CC(N=c2cc3n(-c4ccccc4)c4ccccc4nc-3cc2Nc2ccccc2)CC(C)(C)N1` [Compound B3962, N,5-bis(phenyl)-3,5-dihydro-3-[(2',2',6',6'-tetramethyl-4-piperidyl)imino]-2-phenazinamine]: the IC50 is, setting by setting: under setting [1], 0.159 µg/mL; under setting [2], 0.07 µg/mL; under setting [3], 0.285 µg/mL (≈ 0.568 µM).
The matching figures for `CC1(C)CC(N=c2cc3n(-c4ccc(Cl)c(Cl)c4)c4ccccc4nc-3cc2Nc2ccc(Cl)c(Cl)c2)CC(C)(C)N1` [Compound B4100]: 0.278 µg/mL, 0.095 µg/mL and 0.335 µg/mL (≈ 0.524 µM).
Turning to `CC1(C)CC(N=c2cc3n(-c4cccc(C(F)(F)F)c4)c4ccccc4nc-3cc2Nc2cccc(C(F)(F)F)c2)CC(C)(C)N1` [Compound B4126, N,5-bis(3-trifluoromethyl-4-phenyl)-3,5-dihydro-3-[(2',2',6',6'-tetramethyl-4-piperidyl)-imino]-2-phenazinamine], the IC50 reads like this: under setting [1], 0.246 µg/mL; under setting [2], 0.071 µg/mL; under setting [3], 0.316 µg/mL (≈ 0.496 µM).
In the case of `CC1(C)CC(N=c2cc3n(-c4ccc(C(F)(F)F)cc4)c4ccccc4nc-3cc2Nc2ccc(C(F)(F)F)cc2)CC(C)(C)N1` [Compound B4103, N,5-bis(4-trifluoromethylphenyl)-3,5-dihydro-3[(2',2',6',6'-tetramethyl-4-piperidyl)imino]-2-phenazinamine], the IC50 runs as follows: under setting [1], 0.269 µg/mL; under setting [2], 0.051 µg/mL; under setting [3], 0.351 µg/mL (≈ 0.55 µM).
On to `CC1(C)CC(N=c2cc3n(-c4cccc(Cl)c4)c4ccc(Cl)cc4nc-3cc2Nc2cccc(Cl)c2)CC(C)(C)N1` [Compound B4123, N,5-bis(3-chlorophenyl)-8-chloro-3,5-dihydro-3[(2,2',6',6'-tetramethyl-4-piperidyl)-imino]-2-phenazinamine], for which the IC50 reads like this: under setting [1], 0.181 µg/mL; under setting [2], under 0.05 µg/mL; under setting [3], 0.333 µg/mL (≈ 0.55 µM).
For `CC1(C)CC(N=c2cc3n(-c4ccc(Cl)c(C(F)(F)F)c4)c4ccccc4nc-3cc2Nc2ccc(Cl)c(C(F)(F)F)c2)CC(C)(C)N1` [Compound B4163, N,5-bis[(3-trifluoromethyl)-4-chlorophenyl]-3,5-dihydro-3-[(2',2',6',6'-tetramethylpiperidyl)-imino]-2-phenazinamie] the same measures were 0.227 µg/mL, under 0.05 µg/mL and 0.34 µg/mL (≈ 0.481 µM).
As for `CCN(CC)CCCN=c1cc2n(-c3ccc(Cl)c(Cl)c3)c3ccccc3nc-2cc1Nc1ccc(Cl)c(Cl)c1` [Compound B4154], the IC50 under setting [1] is 0.296 µg/mL, the IC50 under setting [2] came to 0.118 µg/mL and the IC50 under setting [3] turned out to be 0.353 µg/mL (≈ 0.575 µM).
For `CC1(C)CC(N=c2cc3n(-c4ccc(Cl)cc4)c4ccc(Cl)cc4nc-3cc2Nc2ccc(Cl)cc2)CC(C)(C)N1` [Compound B4090] the same measures were 0.139 µg/mL, under 0.05 µg/mL and 0.197 µg/mL (≈ 0.326 µM).

Values taken from patent publication EP0676201B1, “Use of a riminophenazine for treating MDR resistance” (priority 1994, dated 1995).
